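All cell lines were grown in 96-well plates and treated with compound for 48 hours. At the GI50, growth is halved.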 Calls of active or inactive are those of the source. Cut-off read from the data, not from the text of the source: active = GI50 up to about 1.1 µM and inactive = higher.
Tests used:
Test in all cases: NCI-60 cell line screen, 48 h
[1] = tested on: OVCAR-8
[2] = tested on: K562
[3] = tested on: SW-620
[4] = tested on: U-251
[5] = tested on: IGROV-1
[6] = tested on: SF-539
[7] = tested on: HCT-15
[8] = tested on: SK-MEL-5
[9] = tested on: KM12
[10] = tested on: ACHN
[11] = tested on: SNB-19
[12] = tested on: SNB-75
[13] = tested on: SN12C
[14] = tested on: COLO 205
[15] = tested on: HT-29
[16] = tested on: OVCAR-3
[17] = tested on: NCI-H23
[18] = tested on: 786-0
[19] = tested on: NCI-H460
[20] = tested on: SK-OV-3

| SMILES | GI50 [1] | GI50 [2] | GI50 [3] | GI50 [4] | GI50 [5] | GI50 [6] | GI50 [7] [µM] | GI50 [8] | GI50 [9] | GI50 [10] | GI50 [11] | GI50 [12] | GI50 [13] | GI50 [14] | GI50 [15] | GI50 [16] | GI50 [17] | GI50 [18] | GI50 [19] | GI50 [20] |
| --- | --- | --- | --- | --- | --- | --- | --- | --- | --- | --- | --- | --- | --- | --- | --- | --- | --- | --- | --- | --- |
| O=C(CSc1nc2ccc([N+](=O)[O-])cc2s1)c1ccc2ccccc2c1 | 37.4 µM (inactive) | 84.9 µM (inactive) | > 100 µM (inactive) | > 100 µM (inactive) | > 100 µM (inactive) | 62.2 µM (inactive) | > 100 | > 100 µM (inactive) | > 100 µM (inactive) | > 100 µM (inactive) | 50.2 µM (inactive) | > 100 µM (inactive) | > 100 µM (inactive) | > 100 µM (inactive) | > 100 µM (inactive) | > 100 µM (inactive) | 33 µM (inactive) | 34 µM (inactive) | > 100 µM (inactive) | > 100 µM (inactive) |
| CC(C)(C)N(Cc1ccc2c(c1)OCO2)C(=O)/C=C\[S+]([O-])c1ccccc1 (stereo not drawn) | 2.03 µM (inactive) | 2.9 µM (inactive) | 2.07 µM (inactive) | 4.33 µM (inactive) | 3.21 µM (inactive) | 2.3 µM (inactive) | 2.65 | 2.82 µM (inactive) | 3.85 µM (inactive) | 3.97 µM (inactive) | 7.67 µM (inactive) | 2.99 µM (inactive) | 2.63 µM (inactive) | 3.01 µM (inactive) | 3.23 µM (inactive) | 1.99 µM (inactive) | 2.27 µM (inactive) | 2.25 µM (inactive) | 4.19 µM (inactive) | 3.01 µM (inactive) |
| COc1cc(/C=C2\CCC(C)C3=C(c4cc(OC)c(OC)c(OC)c4)C(C#N)=C(N)OC32)cc(OC)c1OC (stereo not drawn) | 3.3 µM (inactive) | 2.85 µM (inactive) | 3.97 µM (inactive) | 3.08 µM (inactive) | 4.94 µM (inactive) | 2.26 µM (inactive) | 2.08 | 2.61 µM (inactive) | 3.86 µM (inactive) | 3.89 µM (inactive) | 11.6 µM (inactive) | 1.36 µM (inactive) | 3.21 µM (inactive) | 2.11 µM (inactive) | 2 µM (inactive) | 4.1 µM (inactive) | 3.72 µM (inactive) | 1.95 µM (inactive) | 3.57 µM (inactive) | 5.32 µM (inactive) |
| Cc1ccc(NC(=O)/C=C/c2ccccc2)c(C)c1 | 37.3 µM (inactive) | > 100 µM (inactive) | > 100 µM (inactive) | 76 µM (inactive) |  | > 100 µM (inactive) | > 100 | > 100 µM (inactive) | > 100 µM (inactive) | 39.6 µM (inactive) | > 100 µM (inactive) | 24.9 µM (inactive) | 94.8 µM (inactive) | > 100 µM (inactive) | > 100 µM (inactive) | > 100 µM (inactive) | > 100 µM (inactive) | 74.5 µM (inactive) | > 100 µM (inactive) | 43.2 µM (inactive) |
| COc1ccc2c(c1)C(OC)C1c3c(cc4c(c3-2)OCO4)CCN1C (stereo not drawn) | 2.5 µM (inactive) | 3.63 µM (inactive) | 2.32 µM (inactive) | 3.67 µM (inactive) | 2.88 µM (inactive) | 2.54 µM (inactive) | 2.13 | 2.43 µM (inactive) | 4.34 µM (inactive) | 1.82 µM (inactive) | 3.12 µM (inactive) | 4.05 µM (inactive) | 2.64 µM (inactive) | 2.79 µM (inactive) | 2.21 µM (inactive) | 5.81 µM (inactive) | 2.8 µM (inactive) | 3.64 µM (inactive) | 2.82 µM (inactive) | 4.5 µM (inactive) |
| O=C(Cn1cc(F)c(=O)[nH]c1=O)C12CC3CC(CC(C3)C1)C2 | > 100 µM (inactive) | > 100 µM (inactive) | > 100 µM (inactive) | > 100 µM (inactive) | > 100 µM (inactive) | > 100 µM (inactive) | > 100 | > 100 µM (inactive) | > 100 µM (inactive) | > 100 µM (inactive) | > 100 µM (inactive) | > 100 µM (inactive) | > 100 µM (inactive) | > 100 µM (inactive) | > 100 µM (inactive) | > 100 µM (inactive) | > 100 µM (inactive) | > 100 µM (inactive) | > 100 µM (inactive) | > 100 µM (inactive) |
| COc1ccc2c3c1OC1C(OC)(OC)C=C[C@@]4(Br)[C@@H](C2)N(CC2CC2)CC[C@]314 (stereo partly drawn) | 61.4 µM (inactive) | 52.8 µM (inactive) | 33.7 µM (inactive) | > 100 µM (inactive) | 62.2 µM (inactive) | > 100 µM (inactive) | > 100 | 37.6 µM (inactive) | > 100 µM (inactive) | > 100 µM (inactive) | > 100 µM (inactive) | 96.4 µM (inactive) | > 100 µM (inactive) | 31.8 µM (inactive) | 61.9 µM (inactive) | 46.7 µM (inactive) | 71.3 µM (inactive) | > 100 µM (inactive) | 62.7 µM (inactive) | > 100 µM (inactive) |
| CCOC(=O)c1c(N2CCOCC2)[nH]c(=O)c(C(c2c(Cl)cccc2Cl)c2c(O)c(C(=O)OCC)c(N3CCOCC3)[nH]c2=O)c1O | 8.17 µM (inactive) | 2.3 µM (inactive) | 1.7 µM (inactive) | 4.8 µM (inactive) | 4.09 µM (inactive) | 5.11 µM (inactive) | 4.63 | 4.55 µM (inactive) | 16.9 µM (inactive) | 4.54 µM (inactive) | 7.45 µM (inactive) | 6.7 µM (inactive) | 4.92 µM (inactive) | 4.34 µM (inactive) | 3.56 µM (inactive) | 3.48 µM (inactive) | 7.19 µM (inactive) | 2.67 µM (inactive) | 21.4 µM (inactive) | 11.2 µM (inactive) |
| Cc1ccc(NC(=O)/C(CC(=O)c2c[n+]([O-])c3ccccc3[n+]2[O-])=N\NC(=O)C[n+]2ccccc2)cc1 | > 100 µM (inactive) | 48.6 µM (inactive) | > 100 µM (inactive) | > 100 µM (inactive) | > 100 µM (inactive) | > 100 µM (inactive) | > 100 | > 100 µM (inactive) | > 100 µM (inactive) | > 100 µM (inactive) | > 100 µM (inactive) | > 100 µM (inactive) | > 100 µM (inactive) | > 100 µM (inactive) | > 100 µM (inactive) | > 100 µM (inactive) |  | > 100 µM (inactive) | > 100 µM (inactive) | > 100 µM (inactive) |
| CCOC(=O)C1S/C(=N\c2ccc(C)c(C)c2)N=C1C (stereo not drawn) | > 100 µM (inactive) | 59.3 µM (inactive) | > 100 µM (inactive) | > 100 µM (inactive) | > 100 µM (inactive) | > 100 µM (inactive) | > 100 | 52.7 µM (inactive) | > 100 µM (inactive) | > 100 µM (inactive) | > 100 µM (inactive) | 66.8 µM (inactive) | > 100 µM (inactive) | > 100 µM (inactive) | > 100 µM (inactive) | > 100 µM (inactive) | > 100 µM (inactive) | > 100 µM (inactive) | > 100 µM (inactive) | > 100 µM (inactive) |
| C=C(Cl)C(Cl)(CBr)CCC(Cl)C(C)C (stereo not drawn) | 3.19 µM (inactive) | 30.8 µM (inactive) | 2.47 µM (inactive) | 0.647 µM (active) | 9.31 µM (inactive) | 1.3 µM (inactive) | 5.46 | 17.7 µM (inactive) | 1.23 µM (inactive) | 2.92 µM (inactive) | 4.04 µM (inactive) | 0.323 µM (active) | 13.2 µM (inactive) | 4.79 µM (inactive) | 0.222 µM (active) | 1.32 µM (inactive) | 13.7 µM (inactive) | 0.337 µM (active) | 1.98 µM (inactive) | 26.4 µM (inactive) |
| Br[Se]c1ccccn1 | 19.6 µM (inactive) | 24.8 µM (inactive) | 23.9 µM (inactive) | 15.6 µM (inactive) | 17.5 µM (inactive) | 15.8 µM (inactive) | 19 | 15.6 µM (inactive) | 17.3 µM (inactive) | 16.3 µM (inactive) | 12.4 µM (inactive) | 17 µM (inactive) | 18.7 µM (inactive) | 17.1 µM (inactive) | 25.3 µM (inactive) | 15.5 µM (inactive) | 20.7 µM (inactive) | 18.2 µM (inactive) | 18.9 µM (inactive) | 20.5 µM (inactive) |
| COc1ccc(NC(=O)CSc2nnc(Cc3ccccc3)o2)cc1 | > 100 µM (inactive) | > 100 µM (inactive) | > 100 µM (inactive) | 34.5 µM (inactive) | > 100 µM (inactive) | > 100 µM (inactive) | > 100 | 85.1 µM (inactive) | > 100 µM (inactive) | > 100 µM (inactive) | 97.7 µM (inactive) | > 100 µM (inactive) | > 100 µM (inactive) | 94.8 µM (inactive) | 74.1 µM (inactive) | 78.3 µM (inactive) | 61.5 µM (inactive) | > 100 µM (inactive) | > 100 µM (inactive) | > 100 µM (inactive) |
| COC(=O)[C@]1(C)CCCC2(C)C1CC[C@H]1C=C(C)[C@H]3CCC12C3 (stereo partly drawn) | > 100 µM (inactive) | > 100 µM (inactive) | > 100 µM (inactive) | > 100 µM (inactive) | > 100 µM (inactive) | > 100 µM (inactive) | > 100 | 98.2 µM (inactive) | > 100 µM (inactive) | > 100 µM (inactive) | > 100 µM (inactive) | > 100 µM (inactive) | > 100 µM (inactive) | > 100 µM (inactive) | 49.9 µM (inactive) | > 100 µM (inactive) | > 100 µM (inactive) | > 100 µM (inactive) | 44.5 µM (inactive) | > 100 µM (inactive) |

— ChEMBL document CHEMBL1201862, “PubChem BioAssay data set” (2004)
